In ChEMBL document CHEMBL2311530, “The development of potential new fluorine-18 labelled radiotracers for imaging the GABA(A) receptor” (Bioorg Med Chem Lett, 2013):

Columns and labels:
[1] = Displacement of […]FMZ from Wistar rat cerebellum GABAA receptor by competitive radioligand assay; format: tissue-based
[2] = Lipophilicity, log D of the compound in n-octanol at pH 7.4 by shake flask method; format: physicochemical

Structure (SMILES)	Ki [1] [nM]	logD [2]
CN1Cc2c(C(=O)OCCF)ncn2-c2ccc(F)cc2C1=O	4	1.12
CN1Cc2c(C(=O)OCCCF)ncn2-c2ccc(F)cc2C1=O	> 10000	0.68
CN1Cc2c(C(=O)OC(C)(C)C)ncn2-c2ccc(OCCF)cc2C1=O	0.52	1.17
CN1Cc2c(C(=O)NCCF)ncn2-c2ccc(F)cc2C1=O	> 10000	–
CN1Cc2c(C(=O)NCCCF)ncn2-c2ccc(F)cc2C1=O	> 10000	–
CN1Cc2c(C(=O)OC(C)(C)C)ncn2-c2ccc(F)cc2C1=O	1.9	–
CCOC(=O)c1ncn2c1CN(C)C(=O)c1cc(OCCF)ccc1-2	2.3	1.62
O=C(NCCCF)c1ncn2c1[C@@H]1CCCN1C(=O)c1c(Br)cccc1-2	> 10000	–
CCOC(=O)c1ncn2c1CN(CCF)C(=O)c1cc(F)ccc1-2	13.5	1.54
O=C(NCCF)c1ncn2c1[C@@H]1CCCN1C(=O)c1c(Br)cccc1-2	> 10000	–
CCOC(=O)c1ncn2c1CN(CC)C(=O)c1cc(F)ccc1-2	10.7	1.65
CCOC(=O)c1ncn2c1CN(C)C(=O)c1cc(F)ccc1-2 [FLUMAZENIL]	1.3	1.58
CN1Cc2c(C(=O)OC(C)(C)C)ncn2-c2ccnc(F)c2C1=O	3.9	–
CCOC(=O)c1ncn2c1CN(C)C(=O)c1c(F)cccc1-2	5.5	1.25
CCOC(=O)c1ncn2c1CN(C)C(=O)c1nc(F)ccc1-2	14	–
CC(C)(C)OC(=O)c1ncn2c1[C@@H]1CCCN1C(=O)c1c(Br)cccc1-2 [BRETAZENIL]	0.3	–
CN1Cc2c(C(=O)OC(C)(C)C)ncn2-c2cccc(OCCF)c2C1=O	1.1	–
CN1Cc2c(C(=O)OC(C)(C)C)ncn2-c2nccc(F)c2C1=O	1.3	–
CN1Cc2c(C(=O)OC(C)(C)C)ncn2-c2cccc(F)c2C1=O	0.76	0.69
CCOC(=O)c1ncn2c1[C@@H]1CCCN1C(=O)c1cc(F)ccc1-2	2.3	1.85
CCOC(=O)c1ncn2c1CN(Cc1ccccc1)C(=O)c1cc(F)ccc1-2	2.9	1.44
O=C(OCCF)c1ncn2c1[C@@H]1CCCN1C(=O)c1c(Br)cccc1-2	9.4	–
CC(C)(C)OC(=O)c1ncn2c1CN(CCF)C(=O)c1cc(F)ccc1-2	8.9	–
CC(C)OC(=O)c1ncn2c1CN(C)C(=O)c1c(F)cccc1-2	0.42	–
O=C(OCCCF)c1ncn2c1[C@@H]1CCCN1C(=O)c1c(Br)cccc1-2	3.2	–
